This passage reports IC50 results from US11639352B2, “Benzothiazole compounds for the treatment of autoimmune diseases” (Hoffmann-La Roche Inc., priority 2018, dated 2023).

SMILES strings stand for the structures.

What is called IC50 is the concentration at which inhibition is half-maximal.

In this test the target is T1, human TLR9 (Homo sapiens, UniProt Q9NR96).
T1 sequence (Q9NR96 26-1032): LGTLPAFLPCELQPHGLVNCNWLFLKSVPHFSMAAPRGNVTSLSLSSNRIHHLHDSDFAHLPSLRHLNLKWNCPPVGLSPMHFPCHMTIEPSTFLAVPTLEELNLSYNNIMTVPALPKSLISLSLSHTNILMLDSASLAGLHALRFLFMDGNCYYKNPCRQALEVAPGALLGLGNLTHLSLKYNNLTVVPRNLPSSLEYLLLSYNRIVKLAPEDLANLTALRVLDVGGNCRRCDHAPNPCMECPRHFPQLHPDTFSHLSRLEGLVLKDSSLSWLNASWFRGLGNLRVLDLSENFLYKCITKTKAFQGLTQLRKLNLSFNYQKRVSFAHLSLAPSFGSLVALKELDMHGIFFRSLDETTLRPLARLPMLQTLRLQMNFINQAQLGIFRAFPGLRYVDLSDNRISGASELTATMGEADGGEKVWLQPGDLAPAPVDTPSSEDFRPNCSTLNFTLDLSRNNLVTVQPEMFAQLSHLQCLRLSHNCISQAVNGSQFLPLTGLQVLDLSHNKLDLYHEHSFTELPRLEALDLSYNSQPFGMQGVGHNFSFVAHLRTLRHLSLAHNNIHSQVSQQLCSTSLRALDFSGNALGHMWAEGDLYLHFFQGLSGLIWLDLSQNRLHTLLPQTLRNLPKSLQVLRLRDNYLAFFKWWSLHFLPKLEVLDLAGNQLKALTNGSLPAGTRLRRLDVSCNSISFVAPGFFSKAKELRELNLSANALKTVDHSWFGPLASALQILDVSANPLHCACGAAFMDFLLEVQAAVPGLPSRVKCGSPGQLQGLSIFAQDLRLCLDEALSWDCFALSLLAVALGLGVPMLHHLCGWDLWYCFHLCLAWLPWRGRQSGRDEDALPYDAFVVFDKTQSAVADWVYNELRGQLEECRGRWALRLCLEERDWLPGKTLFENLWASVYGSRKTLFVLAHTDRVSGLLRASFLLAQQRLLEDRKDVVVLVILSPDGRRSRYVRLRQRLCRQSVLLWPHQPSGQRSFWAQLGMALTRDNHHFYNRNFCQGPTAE
The experiment in a line: HEK293-Blue-hTLR-9 cells assay (SEAP reporter, ODN2006 stimulation). It is filed as cell-based. Particulars: HEK293-Blue-hTLR9 cells, ODN2006 ligand, 20 hrs incubation, antagonist. Here is the method:
The following tests were carried out in order to determine the activity of the compounds of formula (I) in HEK293-Blue-hTLR-7/8/9 cells assay.
HEK293-Blue-hTLR-9 Cells Assay:
A stable HEK293-Blue-hTLR-9 cell line was purchased from InvivoGen (Cat. #: hkb-htlr9, San Diego, Calif., USA). These cells were originally designed for studying the stimulation of human TLR9 by monitoring the activation of NF-κB. A SEAP (secreted embryonic alkaline phosphatase) reporter gene was placed under the control of the IFN-β minimal promoter fused to five NF-κB and AP-1-binding sites. The SEAP was induced by activating NF-κB and AP-1 via stimulating HEK-Blue hTLR9 cells with TLR9 ligands. Therefore the reporter expression was declined by TLR9 antagonist under the stimulation of a ligand, such as ODN2006 (Cat. #: tlrl-2006-1, Invivogen, San Diego, Calif., USA), for incubation of 20 hrs. The cell culture supernatant SEAP reporter activity was determined using QUANTI-Blue™ kit (Cat. #: rep-qb1, Invivogen, San Diego, Calif., USA) at a wavelength of 640 nm, a detection medium that turns purple or blue in the presence of alkaline phosphatase.
HEK293-Blue-hTLR9 cells were incubated at a density of […] cells/mL in a volume of 170 μL in a 96-well plate in Dulbecco's Modified Eagle's medium (DMEM) containing 4.5 g/L glucose, 50 U/mL penicillin, […], 2 mM L-glutamine, 10% (v/v) heat-inactivated fetal bovine serum with addition of 20 μL test compound in a serial dilution in the presence of final DMSO at 1% and 10 μL of 20 uM ODN2006 in above DMEM, perform incubation under 37° C. in a CO2 incubator for 20 hrs. Then 20 μL of the supernatant from each well was incubated with 180 μL Quanti-blue substrate solution at 37° C. for 2 hrs and the absorbance was read at 620˜655 nm using a spectrophotometer. The signalling pathway that TLR9 activation leads to downstream NF-κB activation has been widely accepted, and therefore similar reporter assay was modified for evaluating TLR9 antagonist.
For `C[C@@H]1CN(c2ccc(C#N)c3ncsc23)C[C@H](CN2CCC3(CCCNC3)C2)O1` (stereo partly drawn) [Example 1, 7-[(2S,6R)-2-(2,9-diazaspiro[4.5]decan-2-ylmethyl)-6-methyl-morpholin-4-yl]-1,3-benzothiazole-4-carbonitrile], the IC50 turned out to be 87 nM.

As to `C[C@@H]1CN(c2ccc(C#N)c3ncsc23)C[C@H](CN2CCC(N)CC2)O1` [Example 2, 7-[(2S,6R)-2-[(4-amino-1-piperidyl)methyl]-6-methyl-morpholin-4-yl]-1,3-benzothiazole-4-carbonitrile], the 50% inhibitory concentration (IC50) worked out at 300 nM.

`C[C@@H]1CN(c2ccc(C#N)c3ncsc23)C[C@H](CN2CCC3(CCCNC3)CC2)O1` [Example 3, 7-[(2S,6R)-2-(2,9-diazaspiro[5.5]undecan-9-ylmethyl)-6-methyl-morpholin-4-yl]-1,3-benzothiazole-4-carbonitrile] registered an IC50 of 77 nM.

The compound `C[C@@H]1CN(c2ccc(C#N)c3ncsc23)C[C@H](CN2CC3(CCCNC3)C2)O1` [Example 4, 7-[(2S,6R)-2-(2,8-diazaspiro[3.5]nonan-2-ylmethyl)-6-methyl-morpholin-4-yl]-1,3-benzothiazole-4-carbonitrile] displayed an IC50 of 101 nM.

In turn, `C[C@@H]1CN(c2ccc(C#N)c3ncsc23)C[C@H](CN2CCC3(CCNCC3)CC2)O1` [Example 5, 7-[(2S,6R)-2-(3,9-diazaspiro[5.5]undecan-3-ylmethyl)-6-methyl-morpholin-4-yl]-1,3-benzothiazole-4-carbonitrile] had a concentration for half-maximal inhibition (IC50) of 145 nM.

For the compound `C[C@@H]1CN(c2ccc(C#N)c3ncsc23)C[C@H](CN2CCC3(CCNC3)CC2)O1` [Example 6, 7-[(2S,6R)-2-(2,8-diazaspiro[4.5]decan-8-ylmethyl)-6-methyl-morpholin-4-yl]-1,3-benzothiazole-4-carbonitrile], 98 nM corresponded to half-maximal inhibition (IC50).

Consider `C[C@@H]1CN(c2ccc(C#N)c3ncsc23)C[C@H](CN2CCC(N3CCCCC3)CC2)O1` [Example 7, 7-[(2R,6S)-2-methyl-6-[[4-(1-piperidyl)-1-piperidyl]methyl]morpholin-4-yl]-1,3-benzothiazole-4-carbonitrile], for which the IC50 was determined as 118 nM.

In turn, `C[C@@H]1CN(c2ccc(C#N)c3ncsc23)C[C@H](CN2[C@@H]3CC[C@H]2C[C@@H](N)C3)O1` [Example 8, Endo-7-[(2S,6R)-2-[[(1R,5S)-3-amino-8-azabicyclo[3.2.1]octan-8-yl]methyl]-6-methyl-morpholin-4-yl]-1,3-benzothiazole-4-carbonitrile] showed an IC50 of 109 nM.

In turn, `C[C@@H]1CN(c2ccc(C#N)c3ncsc23)C[C@H](CN2[C@@H]3CC[C@H]2C[C@H](N)C3)O1` [Example 9, Exo-7-[(2S,6R)-2-[[(1S,5R)-3-amino-8-azabicyclo[3.2.1]octan-8-yl]methyl]-6-methyl-morpholin-4-yl]-1,3-benzothiazole-4-carbonitrile] displayed an IC50 of 65 nM.

`C[C@@H]1CN(c2ccc(C#N)c3ncsc23)C[C@H](CN2CCC3(CCCN(C)C3)CC2)O1` [Example 10, 7-[(2R,6S)-2-methyl-6-[(2-methyl-2,9-diazaspiro[5.5]undecan-9-yl)methyl]morpholin-4-yl]-1,3-benzothiazole-4-carbonitrile] returned an IC50 of 77 nM.

`C[C@@H]1CN(c2ccc(C#N)c3ncsc23)C[C@H](C(=O)NC2CCN(C)CC2)O1` [Example 11, (2R,6R)-4-(4-cyano-1,3-benzothiazol-7-yl)-6-methyl-N-(1-methyl-4-piperidyl)morpholine-2-carboxamide] showed a half-inhibitory concentration (IC50) of 17500 nM.

For the compound `C[C@@H]1CN(c2ccc(C#N)c3ncsc23)C[C@H](C(=O)NCC2CN(C)CCO2)O1` (stereo partly drawn) [Example 12, (2R,6R)-4-(4-cyano-1,3-benzothiazol-7-yl)-6-methyl-N-[(4-methylmorpholin-2-yl)methyl]morpholine-2-carboxamide], the IC50 came out at 36800 nM.
